Results on 21 compounds are retold here after patent US20070249590A1, “Substituted indolo[2,3-a]pyrrolo[3,4-c]carbazole compounds useful in treating kinase disorders” (priority 2005, published 2007).

For this assay, the target named is T1, JAK3 (JH1 and JH2 domain) (Homo sapiens, UniProt P52333).
T1 sequence (P52333 521-1111 limits assumed): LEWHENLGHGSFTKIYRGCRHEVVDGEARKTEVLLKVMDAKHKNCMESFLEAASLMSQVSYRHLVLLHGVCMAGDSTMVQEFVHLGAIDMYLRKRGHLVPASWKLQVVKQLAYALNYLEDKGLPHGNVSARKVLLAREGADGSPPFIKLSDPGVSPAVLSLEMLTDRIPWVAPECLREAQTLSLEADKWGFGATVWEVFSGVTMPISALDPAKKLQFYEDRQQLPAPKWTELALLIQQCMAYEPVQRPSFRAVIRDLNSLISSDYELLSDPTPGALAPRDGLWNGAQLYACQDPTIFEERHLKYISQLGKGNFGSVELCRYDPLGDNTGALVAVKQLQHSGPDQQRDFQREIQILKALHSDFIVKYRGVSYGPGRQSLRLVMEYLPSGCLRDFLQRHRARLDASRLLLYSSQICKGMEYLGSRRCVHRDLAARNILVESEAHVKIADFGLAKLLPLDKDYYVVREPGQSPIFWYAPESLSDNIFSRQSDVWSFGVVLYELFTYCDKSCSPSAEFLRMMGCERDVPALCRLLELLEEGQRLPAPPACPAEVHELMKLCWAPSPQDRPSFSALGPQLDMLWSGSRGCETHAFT
As to the kind of experiment: JAK3 Kinase Assay (ELISA of peptide substrate phosphorylation). The class given is biochemical. The note with it: purified JAK3 enzyme, 10 μM ATP, biotinylated peptide substrate, 1 hour at room temperature. As for the experimental part: JAK3 enzyme activity was assayed relative to enzyme phosphorylation using the method described herein.
Sf21 cells derived from the ovarian tissue of the fall armyworm Spodotera frugiperda were obtained from Pharmingen (San Diego, Calif.) and maintained at a temperature of about 26-28° C. in 1 l Bellco spinner flasks at 60-90 rpm. Cell viability was maintained at 95-100%, as determined by a tryptan blue dye exclusion test.
Sf21 cells were infected with a baculovirus expression vector for JAK3 (JH1 and JH2 domain). After 48 hours of infection, cells were harvested and lysed in Tris-saline (pH 7.6) containing 2% NP-40 and a combination of protease inhibitors (Aprotinin, Pepstatin A, Pefabloc, E-64, Leupeptin, and Benzamidine) on ice for 45 minutes.
The JAK3 enzyme was purified from the lysate using glutathione sepharose beads and the enzyme activity was assessed in Costar flat bottom EIA/RIA 96 well plates. The plates were coated with Neutravidin (110 μL) (Pierce Neutravidin Biotin-binding Protein 31000; 1 mg/mL 1:100) diluted in PBS for 1 hour at room temperature. The plates were washed with PBS-0.1% Tween (3 times) to remove unbound Neutravidin, then 1% BSA (150 NIL) in PBS was added to each well to block non-specific binding. The plates was incubated for 1 hour at room temperature and stored at −80° C. until use.
JAK3 enzyme solution (48 μL) in 1.25×TK buffer (62.5 mM HEPES pH 7.5, 12.5 mM MgCl2) containing DTT (42 mM) (Sigma, St. Louis, Mo.) was added to each well of a polypropylene 96 well plate.
A test compound (5 μL) diluted in DMSO (48 μL) and biotinylated peptide enzyme substrate (5 μg diluted in TK buffer containing 10 μM ATP) were added to each well using the double dispense feature of a multichannel electronic biohit. Control wells received DMSO vehicle (5 μL). The contents of the wells were mixed for approximately 8 seconds using a multitube vortexer and the reaction mixture was incubated for 1 hour at room temperature.
After incubation, an aliquot of reaction mixture (90 μL) was transferred into a washed Neutravidin coated plate. The plate was incubated for 15 minutes at room temperature and washed 3 times with PBS-T. PY99 anti-phosphotyrosine antibody (100 μL/well) (Santa Cruz #sc-7020HRP diluted 1:6000 in 1× antibody buffer) was added into each well and the plate was incubated for 40 minutes at room temperature. The antibody buffer contained 10% BSA, 100 mM Tris (pH 7.5), 1M NaCl and 1% Tween 20. The plate washed 3 times with PBS-T, then TMB (100 pLXSigma, St. Louis, Mo.) was added to the each well. The plate was incubated for another 40 mins at room temperature in the dark. The reaction was stopped by the addition of 1M H2SO4 (50 μL/well) and the optical density was read at 450/650 nm.
Test compounds were assayed in triplicate at 16 concentrations at half-log dilutions starting at 200 μM. A maximum and minimum signal for the assay was determined on each plate. The percent inhibition of a test compound was calculated according to the formula [formula]
For a series of test concentrations, the IC50 was derived by graphing percent inhibition against the log of the concentrations tested for a given compound. For those compounds without an IC50, the percent inhibition results are shown at a test concentration of 1 μM.
Background: In an ELISA, binding on a coated surface is turned into a signal by an enzyme label.
The IC50 is the concentration that inhibits the measured activity by half. As for `O=C1NCc2c1c1c3cc(/C=C/CNC4=NCCN4)ccc3n3c1c1c2c2ccccc2n1CC(CO)C3` (stereo not drawn) [Cpd 221, 3-{(1E)-3-[(4,5-dihydro-1H-imidazol-2-yl)amino]-prop-1-en-1-yl}-12,13-(2-hydroxymethyl-propan-1,3-yl)-6,7,12,13-tetrahydro-5-oxo-5H-indolo[2,3-a]pyrrolo[3,4-c]carbazole], the IC50 is 0.031 µM.

Consider `O=C1NCc2c1c1c3ccccc3n3c1c1c2c2ccccc2n1CC(O)(COC(=O)N1CCOCC1)C3` (stereo not drawn) [Cpd 138, 12,13-[2-hydroxy-2-(morpholin-4-yl-carbonyloxymethyl)-propan-1,3-yl]-6,7,12,13-tetrahydro-5-oxo-5H-indolo[2,3-a]pyrrolo[3,4-c]carbazole], for which the IC50 came out at 0.161 µM.

For `O=C1NC(=O)c2c1c1c3ccccc3n3c1c1c2c2ccccc2n1CC(OC(=O)N1CCC(C2CCCCC2)CC1)CC3` (stereo not drawn) [Cpd 53, 12,13-{2-[(4-cyclohexyl-piperazin-1-yl)carbonyloxy]-butan-1,4-yl}-12,13-dihydro-5,7-dioxo-6H-indolo[2,3-a]pyrrolo[3,4-c]carbazole], the IC50 was > 0.4 µM. As for `COc1ccccc1CNC(=O)OCC1Cn2c3ccccc3c3c4c(c5c6ccccc6n(c5c32)C1)C(=O)NC4` (stereo not drawn) [Cpd 169, 12,13-{2-[(2-methoxy-benzyl)carbamoyloxymethyl]-propan-1,3-yl}-6,7,12,13-tetrahydro-5-oxo-5H-indolo[2,3-a]pyrrolo[3,4-c]carbazole], the IC50 worked out at 0.073 µM. Take `Cc1ncsc1/C=C/c1ccc2c(c1)c1c3c(c4c5ccccc5n5c4c1n2CC(CO)C5)CNC3=O` (stereo not drawn) [Cpd 217, 3-[(2E)-2-(4-methyl-thiazol-5-yl)ethenyl]-12,13-(2-hydroxymethyl-propan-1,3-yl)-6,7,12,13-tetrahydro-5-oxo-5H-indolo[2,3-a]pyrrolo[3,4-c]carbazole]: the IC50 came to 0.592 µM. With `COc1ccccc1CNC(=O)OCC1(O)Cn2c3ccccc3c3c4c(c5c6ccccc6n(c5c32)C1)C(=O)NC4` (stereo not drawn) [Cpd 174, 12,13-{2-hydroxy-2-[(2-methoxy-benzyl)carbamoyloxymethyl]-propan-1,3-yl}-6,7,12,13-tetrahydro-5-oxo-5H-indolo[2,3-a]pyrrolo[3,4-c]carbazole], the IC50 came out at 0.166 µM. To `CC1(C)OCC2(CO1)Cn1c3ccccc3c3c4c(c5c6ccccc6n(c5c31)C2)C(=O)NC4` [Cpd 26] belongs 0.095 µM; to `O=C1NC(=O)c2c1c1c3ccccc3n3c1c1c2c2ccccc2n1CC(OC(=O)N1CCN(C(c2ccccc2)c2ccccc2)CC1)CC3` (stereo not drawn) [Cpd 62, 12,13-{2-[(4-benzhydryl-piperazin-1-yl)carbonyloxy]-butan-1,4-yl}-12,13-dihydro-5,7-dioxo-6H-indolo[2,3-a]pyrrolo[3,4-c]carbazole], 0.496 µM; to `O=Cc1ccc2c(c1)c1c3c(c4c5cc(Br)ccc5n5c4c1n2CC(CO)C5)C(=O)NC3` (stereo not drawn) [Cpd 207, 3-bromo-9-formyl-12,13-(2-hydroxymethyl-propan-1,3-yl)-6,7,12,13-tetrahydro-5-oxo-5H-indolo[2,3-a]pyrrolo[3,4-c]carbazole], 0.013 µM. With `O=C1NCc2c1c1c3ccccc3n3c1c1c2c2ccccc2n1CC(CO)(CO)C3` [Cpd 27, 12,13-(2,2-bis-hydroxymethyl-propan-1,3-yl)-6,7,12,13-tetrahydro-5-oxo-5H-indolo[2,3-a]pyrrolo[3,4-c]carbazole], the IC50 came out at 0.015 µM. Take `O=C(NCCc1ccccn1)OC1Cn2c3ccccc3c3c4c(c5c6ccccc6n(c5c32)CC1O)C(=O)NC4=O` (stereo not drawn) [Cpd 82, 12,13-{2-[(2-pyridin-2-yl-ethyl)carbamoyloxy]-3-hydroxy-butan-1,4-yl}-12,13-dihydro-5,7-dioxo-6H-indolo[2,3-a]pyrrolo[3,4-c]carbozole]: the IC50 amounted to 0.134 µM. On to `CN(C)[C@@H]1CCN(C(=O)OC2CCn3c4ccccc4c4c5c(c6c7ccccc7n(c6c43)C2)C(=O)NC5=O)C1` (stereo partly drawn) [Cpd 74, 12,13-(2-{[(3R)-3-dimethylamino-pyrrolidin-1-yl]carbonyloxy}-butan-1,4-yl)-12,13-dihydro-5,7-dioxo-6H-indolo[2,3-a]pyrrolo[3,4-c]carbazole], for which the IC50 came to 0.014 µM. On to `O=C1NC(=O)c2c1c1c3ccccc3n3c1c1c2c2ccccc2n1CC(O)CCC3` (stereo not drawn) [Cpd 8], for which the IC50 stood at 0.008 µM.

As to `O=C1NCc2c1c1c3ccccc3n3c1c1c2c2ccccc2n1C/C=C\C3` [Cpd 2, 12,13-(but-2-en-1,4-yl)-6,7,12,13-tetrahydro-5-oxo-5H-indolo[2,3-a]pyrrolo[3,4-c]carbazole], the IC50 was 0.04 µM. As to `O=C1NC(=O)c2c1c1c3ccccc3n3c1c1c2c2ccccc2n1CC(OC(=O)N1CCN(CCc2ccccc2)CC1)C(O)C3` (stereo not drawn) [Cpd 110, 12,13-(2-{[4-(2-phenyl-ethyl)piperazin-1-yl]carbamoyloxy}-3-hydroxy-butan-1,4-yl)-12,13-dihydro-5,7-dioxo-6H-indolo[2,3-a]pyrrolo[3,4-c]carbazole], the IC50 was 0.916 µM. Next, `CN(C)CCN(C)C(=O)OC1CCn2c3ccccc3c3c4c(c5c6ccccc6n(c5c32)C1)C(=O)NC4=O` (stereo not drawn) [Cpd 67, 12,13-(2-{[N-methyl-N-(2-dimethylamino-ethyl)]carbamoyloxy}-butan-1,4-yl)-12,13-dihydro-5,7-dioxo-6H-indolo[2,3-a]pyrrolo[3,4-c]carbazole]: 0.247 µM; `O=C1NC(=O)c2c1c1c3ccccc3n3c1c1c2c2ccccc2n1CC(O)C(O)CC3` (stereo not drawn) [Cpd 11, 12,13-(2,3-dihydroxy-pentan-1,5-yl)-12,13-dihydro-5,7-dioxo-6H-indolo[2,3-a]pyrrolo[3,4-c]carbazole]: 0.009 µM; `O=C(NCC1CCCCC1)OC1Cn2c3ccccc3c3c4c(c5c6ccccc6n(c5c32)CC1O)C(=O)NC4=O` (stereo not drawn) [Cpd 81, 12,13-{2-[(cyclohexyl-methyl)carbamoyloxy]-3-hydroxy-butan-1,4-yl}-12,13-dihydro-5,7-dioxo-6H-indolo[2,3-a]pyrrolo[3,4-c]carbazole]: 0.434 µM. For the compound `O=C1NCc2c1c1c3ccccc3n3c1c1c2c2ccccc2n1CC(COC(=O)N1CCN(C(=O)OCc2ccccc2)CC1)C3` (stereo not drawn) [Cpd 167, 12,13-(2-{[4-(benzyloxycarbonyl)piperazin-1-yl]carbonyloxymethyl}-propan-1,3-yl)-6,7,12,13-tetrahydro-5-oxo-5H-indolo[2,3-a]pyrrolo[3,4-c]carbazole], the IC50 came out at 0.202 µM. In the case of `O=C1NCc2c1c1c3cc(Br)ccc3n3c1c1c2c2cc(CN4CCOCC4)ccc2n1CC(CO)C3` (stereo not drawn) [Cpd 208, 3-bromo-9-(morpholin-4-ylmethyl)-12,13-(2-hydroxymethyl-propan-1,3-yl)-6,7,12,13-tetrahydro-5-oxo-5H-indolo[2,3-a]pyrrolo[3,4-c]carbazole], the IC50 is 3.13 µM. To `CN(C)CCNC(=O)/C=C/c1ccc2c(c1)c1c3c(c4c5ccccc5n5c4c1n2CC(CO)C5)CNC3=O` (stereo not drawn) [Cpd 222, 3-{(2E)-2-[(2-dimethylamino-ethyl)carbamoyl]ethenyl}-12,13-(2-hydroxymethyl-propan-1,3-yl)-6,7,12,13-tetrahydro-5-oxo-5H-indolo[2,3-a]pyrrolo[3,4-c]carbazole] belongs 0.237 µM.
